# Like-named read-outs stand apart in the source and are kept apart here.
# How the values were obtained:
# E. coli Mach1-T1R = assay: MIC of 3-HP, microaerobic 96 well-plate, MOPS minimal media with supplements (Example 36); format: cell-based, Escherichia coli; settings: increase of the 3-HP MIC, 24 h
# Procedure: 3-HP was obtained from TCI America (Portland, Oreg.). Significant acrylic acid and 2-oxydipropionic contamination was observed via HPLC analysis. Samples were subsequently treated by diethyl ether extraction to remove acrylic acid and a portion of the 2-oxydipropionic contaminants. Samples were then neutralized with 10 M NaOH to a final pH of 7.0. […] The working stock solution was used for the selection, growth rates and MIC evaluations in this example.
# Overnight cultures of strains were grown in 5 ml LB (with antibiotic where appropriate). A 1 v/v % was used to inoculate a 15 ml conical tube filled to the top with MOPS minimal media and capped. After the cells reached mid exponential phase, the culture was diluted to an OD600 of 0.200. The cells were further diluted 1:20 and a 10 ul aliquot was used to inoculate each well (˜10^4 cells per well).
# [1] = tested on: Yeast strains (S288C background); assay: microbe, parasite or virus in culture; format: cell-based, Saccharomyces cerevisiae; settings: for average MIC Assay Result (g/L 3-HP): MIC of 3-HP; for average MIC Assay Result (g/L 3-HP) / MIC: S288C, SD media plus the named supplement(s); for MIC: Saccharomyces cerevisiae, read-out: Average MIC Assay Result (g/L 3-HP), MIC of 3-HP
# Procedure: The minimum inhibitory concentration (MIC) was determined anaerobically in a 96 well-plate format. […] A 1% (v/v) inoculum was introduced into a 5 ml culture of SD minimal media without vitamins. After the cells reached mid-exponential phase, the culture was diluted to an OD600 of 0.200. The cells were further diluted 1:5 and a 10 μL aliquot was used to inoculate each well of a 96 well plate (˜10^4 cells per well) to total volume of 100 uL. […] Plates were incubated for 72 hours at 30 C. […] Plates were sealed in biobag anaerobic chambers that contained gas generators for anaerobic conditions and incubated for 72 hours at 30 C.
# [2] = tested on: Yeast strains (S288C background); assay: microbe, parasite or virus in culture; format: cell-based, Saccharomyces cerevisiae; settings: for average MIC Assay Result (g/L 3-HP): MIC of 3-HP
# Procedure: The minimum inhibitory concentration (MIC) was determined aerobically in a 96 well-plate format. […] Media supplements were added according to levels reported in the Supplements Table, where specified. Overnight cultures of strains were grown in triplicate in 5 mL SD media with vitamins (Methods in Enzymology vol. 350, page 17 (2002)). A 1% (v/v) inoculum was introduced into a 5 ml culture of SD minimal media without vitamins. After the cells reached mid-exponential phase, the culture was diluted to an OD600 of 0.200. The cells were further diluted 1:5 and a 10 μL aliquot was used to inoculate each well of a 96 well plate (˜10^4 cells per well) to total volume of 100 uL. […] Plates were incubated for 72 hours at 30 C.
# E. coli [3] = assay: microbe, parasite or virus in culture; format: cell-based
# Procedure: (§1) For MIC evaluations, the final results are expressed in chemical agent concentrations determined by analysis of the stock solution by HPLC (i.e., see Subsection IIIb).
# (§2) The minimum inhibitory concentration (MIC) was determined aerobically in a 96 well-plate format. […] Media supplements were added according to levels reported in the Supplements Table, where specified. Overnight cultures of strains were grown in triplicate in 5 mL LB (with antibiotic where appropriate). A 1% (v/v) inoculum was introduced into a 5 ml culture of M9 minimal media.
# B. subtilis = assay: MIC evaluation of 3-HP, B. subtilis aerobic, M9 media + glutamate, 96 well-plate, 24 h (Common Methods); format: cell-based; settings: for Avg 24 hr ΔOD600: 3HP tolerance, B. subtilis 168, M9 + glu + trp plus the named supplement(s); for % Increase Over Control: ΔOD600 with named supplement(s) vs B. subtilis 168 without supplement
# Procedure: as §1
# as §2, with “Table” for “Table,”, “media+glutamate.” for “media.”
# E. coli [4] = assay: microbe, parasite or virus in culture; format: cell-based; settings: anaerobic
# Procedure: as §1
# as §2, with “anaerobically” for “aerobically”
# [5] = 3-HP MIC with named supplement(s) vs S288C in SD without supplement, anaerobic
# [6] = 3-HP MIC with named supplement(s) vs S288C in SD without supplement, aerobic
# [7] = S288C, SD media plus the named supplement(s), aerobic
# [8] = MIC of 3-HP for strain BW25113, M9 media with the named supplement(s), aerobic, 24-hour MIC evaluation
# [9] = increase of 3-HP MIC over BW25113 in M9 without supplements, M9 media with the named supplement(s), aerobic
SMILES,"% Increase Over Control [1, 5]",average MIC Assay Result (g/L 3-HP) ([1]; anaerobic),average MIC Assay Result (g/L 3-HP) (E. coli [3]; [8]),% Increase Over Control (E. coli [3]; [9]),other results
"O=C(O)c1cccc(O)c1O [2,3-didyroxybenzoic acid, 2,3-dihydroxybenzoic acid]",,,,,MIC increase resulting from supplementation (E. coli Mach1-T1R): 33%
CCC(=O)C(=O)O [2-oxobutyrate (B)],2%,38 g/L,,,"% Increase Over Control [2, 6]: 11%; average MIC Assay Result (g/L 3-HP) [2, 7]: 50 g/L"
N[C@@H](CC(=O)O)C(=O)O [Aspartate],,,,,"% Increase Over Control [2, 6]: 26%; MIC ([2]; Saccharomyces cerevisiae, read-out: Average MIC Assay Result (g/L 3-HP), MIC of 3-HP, S288C, SD media plus the named supplement(s), aerobic): 57 g/L"
O=C(O)O [Bicarbonate (C)],140%,90 g/L,44 g/L 3-HP,59%,
O=C(O)O [Bicarbonate],,,,,Avg 24 hr ΔOD600 (B. subtilis): 0.06; % Increase Over Control (B. subtilis): 56%
NCCCCCN [Cadaverine (C)],60%,,35 g/L 3-HP,,MIC ([1]; anaerobic): 60 g/L
O=C(O)CC(O)(CC(=O)O)C(=O)O [Citrate],,,,,Avg 24 hr ΔOD600 (B. subtilis): 0.30; % Increase Over Control (B. subtilis): 674%
NC(=O)NCCC[C@H](N)C(=O)O [Citrulline (C)],158%,97 g/L,30 g/L 3-HP,9%,"% Increase Over Control [2, 6]: 28%; average MIC Assay Result (g/L 3-HP) [2, 7]: 58 g/L"
NC(=O)CC[C@H](N)C(=O)O [Glutamine (C)],,,30 g/L 3-HP,9%,
NCC(=O)O [Glycine (B)],60%,60 g/L,,,"% Increase Over Control [2, 6]: 11%; average MIC Assay Result (g/L 3-HP) [2, 7]: 50 g/L; % Increase Over Control (E. coli [3]): 3%; average MIC Assay Result (g/L 3-HP) (E. coli [3]): 28 g/L 3-HP"
NC(CCS)C(=O)O (centres unmarked) [Homocysteine (B)],7%,40 g/L,30 g/L 3-HP,9%,
N[C@@H](CCO)C(=O)O [Homoserine (B)],,,35 g/L 3-HP,,
CC[C@H](C)[C@H](N)C(=O)O [Isoleucine (B)],2%,38 g/L,32 g/L 3-HP,17%,
NCCCC[C@H](N)C(=O)O [Lysine (D)],20%,45 g/L,37 g/L 3-HP,33%,"% Increase Over Control (E. coli [4]; 3-HP MIC with named supplement(s) vs BW25113 in M9 without supplement): 39%; MIC Assay Result (g/L 3-HP) (E. coli [4]; MIC of 3-HP, BW25113, M9 media plus the named supplement(s), 24-hour): 41.7 g/L"
CSCC[C@H](N)C(=O)O [Methionine (B)],,,,,% Increase Over Control [1]: 167%; % Increase Over Control [2]: 59%; % Increase Over Control (E. coli [3]): 36%; average MIC Assay Result (g/L 3-HP) (E. coli [3]): 38 g/L 3-HP
CSCC[C@H](N)C(=O)O [Methionine],,,,,Avg 24 hr ΔOD600 (B. subtilis): 0.15; % Increase Over Control (B. subtilis): 282%
NCCC[C@H](N)C(=O)O [Ornithine (C)],,,30 g/L 3-HP,9%,
N[C@@H](Cc1ccccc1)C(=O)O [Phenylalanine (A)],2%,,32 g/L 3-HP,17%,MIC ([1]; anaerobic): 38 g/L
NCCCCN [Putrescine (C)],,,,,average MIC Assay Result (g/L 3-HP) (E. coli [3]): 30 g/L 3-HP
NCCCCN [Putrescine(C)],,,,,% Increase Over Control [1]: 56%; % Increase Over Control [2]: 22%

# — patent US20130122541A1, “MICROORGANISM PRODUCTION OF HIGH-VALUE CHEMICAL PRODUCTS, AND RELATED COMPOSITIONS, METHODS AND SYSTEMS” (The Regents of the University of Colorado, priority 2010, published 2013)
